System: lung gene expression
Test: RNA sequencing of lung tissue (BLM/EL244 vs BLM)
Format: in vivo, mouse
Experimental: RNA quality was assessed using an Agilent TapeStation 4150 with the High Sensitivity […] ScreenTape (Agilent), according to the manufacturer’s protocols. For library preparation, the QuantSeq 3’mRNA-Seq Library Prep Kit (Lexogen) was used according to manufacturer’s instructions. Briefly, 500 ng of RNA from each sample was used for first-strand synthesis, followed by RNA template removal, and second-strand synthesis initiated by random primers. In-line barcodes were introduced at this step, and this was followed by magnetic bead-based purification. The resulting libraries were amplified for 15 cycles and re-purified, with quantity and quality assessed on a Qubit 4 Fluorometer with the Invitrogen Qubit dsDNA HS Assay and an Agilent Tapestation 4150 with the High Sensitivity D1000 assay kit, respectively. The quantified libraries were pooled equimolarly; 50ng of total library mix was used for Adapter Conversion PCR Amplification using the Universal Library Conversion Kit (App-A), Version: V1.0 (MGI Tech Co., Ltd.), according to the manufacturer’s instructions.
The quantity and quality of the purified adapter conversion PCR (AC-PCR) product were evaluated on a Qubit 4 Fluorometer with the Invitrogen Qubit dsDNA HS Assay and on an Agilent Tapestation 4150 with the High Sensitivity D1000 assay kit, respectively. This was followed by DNA denaturation, Single-Strand Circularisation, Enzymatic Digestion, Enzymatic Digestion Product Cleanup and Quality Control steps on 1 pmol of AC-PCR product, according to the Universal Library Conversion Kit (App-A) User Manual (Version: A3).
Finally, 60 fmol of ssCirDNA were used for DNB preparation and sequencing on a DNBSEQ-G400 platform at the BSRC Alexander Fleming Genomics Facility, using a G400 App-A FCS SE100 High-throughput Sequencing Set (MGI Tech Co., Ltd.), according to the manufacturer’s instructions.
Alignment of the FASTQ files was performed against the mouse genome build mm10 using a custom Bash script.[143] Read counting on the 3′ UTRs and differential expression analysis were conducted using the metaseqR2 bioconductor package.[144] Genes corresponding to the following biotypes were excluded: polymorphic_pseudogene, processed_transcript, pseudogene, IG_V_pseudogene, misc_RNA, IG_C_gene, IG_J_gene, IG_D_gene, IG_LV_gene, TR_V_gene, TR_V_pseudogene, TEC, and processed_pseudogene. Gene counts were normalized with DESEQ[145] through metaseqR2. Genes with more than 10 counts in at least 50% of the samples were kept for further processing. For differential expression analysis, the PANDORA algorithm[146] was used to estimate a meta p-value integrating the results from the DESEQ, DESEQ2,[147] edgeR,[148] limma,[149] NBPSeq,[150] and NOISeq[151] algorithms. All additional parameters were set to default values.
Pathway enrichment analysis was performed for the Gene Ontology Biological process (BP) and Molecular Function (MF) terms through GeneCodis 4.[152] The volcano plots, scatterplots, Venn diagrams, and dot plots were generated using the ggplot2 Bioconductor package.

In the case of `O=C1NC(=O)C(Cc2ccc(OCCC3CCN(C(=O)OCc4cc(Cl)cc(Cl)c4)CC3)cc2)S1` (stereo not shown) [EL244, 3,5-dichlorobenzyl 4-(2-(4-((2,4-dioxothiazolidin-5-yl)methyl)phenoxy)ethyl)piperidine-1-carboxylate], the “Ear1 log2 nFC BLM/EL244 vs BLM” value (DEG Ear1, nFC: normalised fold change) is reported as 1.11, the “Ednrb log2 nFC BLM/EL244 vs BLM” value (DEG Ednrb, nFC: normalised fold change) is reported as 0.97 and the “Elmod1 log2 nFC BLM/EL244 vs BLM” value (DEG Elmod1, nFC: normalised fold change) is reported as 0.89. For the same molecule, the “Eml5 log2 nFC BLM/EL244 vs BLM” value (DEG Eml5, nFC: normalised fold change) was 1.41, the “Eng log2 nFC BLM/EL244 vs BLM” value (DEG Eng, nFC: normalised fold change) was 0.81 and the “Errfi1 log2 nFC BLM/EL244 vs BLM” value (DEG Errfi1, nFC: normalised fold change) was 0.95. The “Esm1 log2 nFC BLM/EL244 vs BLM” value (DEG Esm1, nFC: normalised fold change) was 1.28, the “Fabp3 log2 nFC BLM/EL244 vs BLM” value (DEG Fabp3, nFC: normalised fold change) was 0.98 and the “Fabp12 log2 nFC BLM/EL244 vs BLM” value (DEG Fabp12, nFC: normalised fold change) was 1.43. For the same molecule, the “Faim2 log2 nFC BLM/EL244 vs BLM” value (DEG Faim2, nFC: normalised fold change) was 2.03, the “Fam71f2 log2 nFC BLM/EL244 vs BLM” value (DEG Fam71f2, nFC: normalised fold change) was 1.96 and the “log2 nFC BLM/EL244 vs BLM” value (DEG Fcgr1) was -1.30. For the same molecule, the “log2 nFC BLM/EL244 vs BLM” value (DEG Fcrls) was -1.35, the “log2 nFC BLM/EL244 vs BLM” value (DEG Fgf13) was -1.40 and the “log2 nFC BLM/EL244 vs BLM” value (DEG Fkbp10) was -1.25. For the same molecule, the “Fmo1 log2 nFC BLM/EL244 vs BLM” value (DEG Fmo1, nFC: normalised fold change) was 0.86, the “Fmo2 log2 nFC BLM/EL244 vs BLM” value (DEG Fmo2, nFC: normalised fold change) was 1.00 and the “Fosb log2 nFC BLM/EL244 vs BLM” value (DEG Fosb, nFC: normalised fold change) was 2.38. For the same molecule, the “log2 nFC BLM/EL244 vs BLM” value (DEG Foxm1) was -1.56, the “Fxyd1 log2 nFC BLM/EL244 vs BLM” value (DEG Fxyd1, nFC: normalised fold change) was 0.80 and the “Fzd4 log2 nFC BLM/EL244 vs BLM” value (DEG Fzd4, nFC: normalised fold change) was 0.69. For the same molecule, the “Galnt15 log2 nFC BLM/EL244 vs BLM” value (DEG Galnt15, nFC: normalised fold change) was 0.89, the “log2 nFC BLM/EL244 vs BLM” value (DEG Gas2l3) was -1.32 and the “Ggt1 log2 nFC BLM/EL244 vs BLM” value (DEG Ggt1, nFC: normalised fold change) was 1.91. For the same molecule, the “log2 nFC BLM/EL244 vs BLM” value (DEG Gins2) was -1.57, the “Gm867 log2 nFC BLM/EL244 vs BLM” value (DEG Gm867, nFC: normalised fold change) was 2.18 and the “Gm4956 log2 nFC BLM/EL244 vs BLM” value (DEG Gm4956, nFC: normalised fold change) was 1.08. The “Gm9780 log2 nFC BLM/EL244 vs BLM” value (DEG Gm9780, nFC: normalised fold change) was 2.06, the “Gm14964 log2 nFC BLM/EL244 vs BLM” value (DEG Gm14964, nFC: normalised fold change) was 1.87 and the “Gm20186 log2 nFC BLM/EL244 vs BLM” value (DEG Gm20186, nFC: normalised fold change) was 1.31. The “Gm26236 log2 nFC BLM/EL244 vs BLM” value (DEG Gm26236, nFC: normalised fold change) was 1.03, the “Gm42722 log2 nFC BLM/EL244 vs BLM” value (DEG Gm42722, nFC: normalised fold change) was 1.79 and the “Gm47291 log2 nFC BLM/EL244 vs BLM” value (DEG Gm47291, nFC: normalised fold change) was 0.98. For the same molecule, the “Gm49353 log2 nFC BLM/EL244 vs BLM” value (DEG Gm49353, nFC: normalised fold change) was 2.21, the “Gm49391 log2 nFC BLM/EL244 vs BLM” value (DEG Gm49391, nFC: normalised fold change) was 0.96 and the “Gnao1 log2 nFC BLM/EL244 vs BLM” value (DEG Gnao1, nFC: normalised fold change) was 0.85. The “Gnmt log2 nFC BLM/EL244 vs BLM” value (DEG Gnmt, nFC: normalised fold change) was 1.14, the “Gpm6a log2 nFC BLM/EL244 vs BLM” value (DEG Gpm6a, nFC: normalised fold change) was 0.83 and the “Gpr155 log2 nFC BLM/EL244 vs BLM” value (DEG Gpr155, nFC: normalised fold change) was 0.76. For the same molecule, the “Gprasp1 log2 nFC BLM/EL244 vs BLM” value (DEG Gprasp1, nFC: normalised fold change) was 0.72, the “Gpt log2 nFC BLM/EL244 vs BLM” value (DEG Gpt, nFC: normalised fold change) was 0.73 and the “Gria1 log2 nFC BLM/EL244 vs BLM” value (DEG Gria1, nFC: normalised fold change) was 1.61. The “Gsn log2 nFC BLM/EL244 vs BLM” value (DEG Gsn, nFC: normalised fold change) was 1.06, the “Gsta3 log2 nFC BLM/EL244 vs BLM” value (DEG Gsta3, nFC: normalised fold change) was 1.10 and the “Gstm1 log2 nFC BLM/EL244 vs BLM” value (DEG Gstm1, nFC: normalised fold change) was 0.75. For the same molecule, the “log2 nFC BLM/EL244 vs BLM” value (DEG Gtse1) was -1.49, the “log2 nFC BLM/EL244 vs BLM” value (DEG Gxylt2) was -1.47 and the “Gzma log2 nFC BLM/EL244 vs BLM” value (DEG Gzma, nFC: normalised fold change) was 1.70. For the same molecule, the “log2 nFC BLM/EL244 vs BLM” value (DEG H2ac11) was -1.45, the “log2 nFC BLM/EL244 vs BLM” value (DEG H2ac12) was -1.44 and the “Hba-a1 log2 nFC BLM/EL244 vs BLM” value (DEG Hba-a1, nFC: normalised fold change) was 1.21. The “Hba-a2 log2 nFC BLM/EL244 vs BLM” value (DEG Hba-a2, nFC: normalised fold change) was 1.14, the “Hbb-bs log2 nFC BLM/EL244 vs BLM” value (DEG Hbb-bs, nFC: normalised fold change) was 1.10 and the “Hbb-bt log2 nFC BLM/EL244 vs BLM” value (DEG Hbb-bt, nFC: normalised fold change) was 1.09. For the same molecule, the “log2 nFC BLM/EL244 vs BLM” value (DEG Hells) was -1.30, the “Hhatl log2 nFC BLM/EL244 vs BLM” value (DEG Hhatl, nFC: normalised fold change) was 2.05 and the “Hlf log2 nFC BLM/EL244 vs BLM” value (DEG Hlf, nFC: normalised fold change) was 0.89. The “Igf1r log2 nFC BLM/EL244 vs BLM” value (DEG Igf1r, nFC: normalised fold change) was 0.70.

From PMC13198257, “An aerosolized dual-action autotaxin inhibitor-PPARγ agonist for the treatment of pulmonary fibrosis” (Cell Reports Medicine, 2026)
